Reference: PubChem BioAssay (NCI)
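48-hour exposure; five concentrations; linearly interpolated endpoints. Here, GI50 denotes the concentration required for 50% inhibition of growth. TGI marks complete inhibition of growth.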

Tests used:
Experiment in all cases: NCI tumour cell line growth inhibition, 48 h
[1] = tested on: 786-0 renal
[2] = tested on: A498 renal
[3] = tested on: A549 NSCLC
[4] = tested on: ACHN renal
[5] = tested on: BT-549 breast
[6] = tested on: CAKI-1 renal
[7] = tested on: CCRF-CEM leukemia
[8] = tested on: COLO 205 colon
[9] = tested on: DU-145 prostate
[10] = tested on: EKVX NSCLC
[11] = tested on: HCC-2998 colon
[12] = tested on: HCT-116 colon
[13] = tested on: HCT-15 colon
[14] = tested on: HL-60(TB) leukemia
[15] = tested on: HOP-62 NSCLC
[16] = tested on: HOP-92 NSCLC
[17] = tested on: HS 578T breast
[18] = tested on: HT29 colon
[19] = tested on: IGROV1 ovarian
[20] = tested on: K-562 leukemia
[21] = tested on: KM12 colon
[22] = tested on: LOX IMVI melanoma
[23] = tested on: M14 melanoma
[24] = tested on: MALME-3M melanoma
[25] = tested on: MCF7 breast
[26] = tested on: MDA-MB-231 breast
[27] = tested on: MDA-MB-435
[28] = tested on: MOLT-4 leukemia
[29] = tested on: NCI-H226 lung
[30] = tested on: NCI-H23 lung
[31] = tested on: NCI-H460 lung
[32] = tested on: NCI-H522 lung
[33] = tested on: NCI/ADR-RES ovarian
[34] = tested on: OVCAR-3 ovarian
[35] = tested on: OVCAR-4 ovarian
[36] = tested on: OVCAR-5 ovarian
[37] = tested on: OVCAR-8 ovarian
[38] = tested on: PC-3 prostate
[39] = tested on: RPMI-8226 leukemia
[40] = tested on: RXF 393 renal
[41] = tested on: SF-268 CNS
[42] = tested on: SF-295 CNS
[43] = tested on: SF-539 CNS
[44] = tested on: SK-MEL-2 melanoma
[45] = tested on: SK-MEL-28 melanoma
[46] = tested on: SK-MEL-5 melanoma
[47] = tested on: SK-OV-3 ovarian
[48] = tested on: SN12C renal
[49] = tested on: SNB-19 CNS
[50] = tested on: SNB-75 CNS
[51] = tested on: SR leukemia
[52] = tested on: SW-620 colon
[53] = tested on: T-47D breast
[54] = tested on: TK-10 renal
[55] = tested on: U251 CNS
[56] = tested on: UACC-257 melanoma
[57] = tested on: UACC-62 melanoma
[58] = tested on: UO-31 renal

In the case of C=C(C(=O)OC1C(CO)OC(OCC2CC[C@@H]3C[C@]4(OC(=O)C3=C)C(C)=CC(=O)C24)C(O)C1O)[C@@H]1CCC(CO)C2C(=O)C=C(C)[C@@]2(O)C1 (some centres not stated), the TGI [1] is reported as 7.85 µM, the TGI [2] is reported as 9.86 µM and the TGI [3] is reported as 18 µM. It also gave a TGI [4] of 12.3 µM, a TGI [5] of 3.52 µM and a TGI [6] of 7.93 µM. The TGI [7] was 1.3 µM, the TGI [8] was 1.13 µM and the TGI [9] was 17.6 µM. The TGI [10] was 8.61 µM, the TGI [11] was 4.29 µM and the TGI [12] was 3.07 µM. It also gave a TGI [13] of 3.1 µM, a TGI [14] of 3.76 µM and a TGI [15] of 24.9 µM. It also gave a TGI [16] of 6.66 µM, a TGI [17] greater than 53.1 µM and a TGI [18] of 6.37 µM. The TGI [19] was 12.6 µM, the TGI [20] was 31.1 µM and the TGI [21] was 8.31 µM. It also gave a TGI [22] of 6.32 µM, a TGI [23] of 4.81 µM and a TGI [24] of 3.44 µM. For the same compound, the TGI [25] was 12.8 µM, the TGI [26] was 3.26 µM and the TGI [27] was 5.04 µM. The TGI [28] was 8.41 µM, the TGI [29] was 20.2 µM and the TGI [30] was 5.12 µM. It also gave a TGI [31] of 13.7 µM, a TGI [32] of 0.783 µM and a TGI [33] of 11.2 µM. It also gave a TGI [34] of 14.7 µM, a TGI [35] of 20.1 µM and a TGI [36] of 7.15 µM. The TGI [37] was 14.8 µM, the TGI [38] was 6.63 µM and the TGI [39] was 9.12 µM. For the same compound, the TGI [40] was 4.14 µM, the TGI [41] was 16.1 µM and the TGI [42] was 35 µM. The TGI [43] was 10.5 µM, the TGI [44] was 8.29 µM and the TGI [45] was 14.8 µM. The TGI [46] was 2.75 µM, the TGI [47] was 55.9 µM and the TGI [48] was 5.42 µM. For the same compound, the TGI [49] was 31.8 µM, the TGI [50] was 29 µM and the TGI [51] was 11.6 µM. For the same compound, the TGI [52] was 13.3 µM, the TGI [53] was 24.3 µM and the TGI [54] was 13.1 µM. The TGI [55] was 16 µM, the TGI [56] was 5.17 µM and the TGI [57] was 3.35 µM. It also gave a TGI [58] of 7.98 µM.

With COc1ccc(C(O)c2cc3c(N)c(C(=O)Nc4ccc(Br)cc4)sc3nc2C)cc1 (configuration not stated) the GI50 [1] was 7.58 µM, the TGI [1] was 29.3 µM and the GI50 [2] was 3.54 µM. The TGI [2] was 19.8 µM, the GI50 [3] was 2640 nM and the TGI [3] was 8.01 µM. The GI50 [4] was 3.93 µM, the TGI [4] was 16.4 µM and the GI50 [5] was 3.02 µM. The TGI [5] was 18.6 µM, the GI50 [6] was 3.5 µM and the TGI [6] was 14.2 µM. It also gave a GI50 [7] of 2780 nM, a TGI [7] greater than 100 µM and a GI50 [8] of 3.74 µM. The TGI [8] was 27 µM, the GI50 [9] was 2520 nM and the TGI [9] was 6.18 µM. For the same compound, the GI50 [10] was 3.29 µM, the TGI [10] was 35 µM and the GI50 [11] was 2680 nM. For the same compound, the TGI [11] was 10.4 µM, the GI50 [12] was 2400 nM and the TGI [12] was 11.3 µM. The GI50 [13] was 1570 nM, the TGI [13] was 13.4 µM and the GI50 [14] was 2410 nM. It also gave a TGI [14] of 13.5 µM, a GI50 [15] of 3.02 µM and a TGI [15] of 11 µM. For the same compound, the GI50 [16] was 2740 nM, the TGI [16] was 23 µM and the GI50 [17] was 2190 nM. For the same compound, the TGI [17] was 5.63 µM, the GI50 [18] was 2400 nM and the TGI [18] was 6.51 µM. The GI50 [19] was 3.37 µM, the TGI [19] was 26 µM and the GI50 [20] was 1130 nM. For the same compound, the TGI [20] was greater than 100 µM, the GI50 [21] was 2450 nM and the TGI [21] was 11.1 µM. For the same compound, the GI50 [22] was 2750 nM, the TGI [22] was 11.6 µM and the GI50 [23] was 2350 nM. The TGI [23] was 20 µM, the GI50 [24] was 2430 nM and the TGI [24] was 13 µM. The GI50 [25] was 1630 nM, the TGI [25] was 15.2 µM and the GI50 [26] was 3.18 µM. For the same compound, the TGI [26] was 16.9 µM, the GI50 [27] was 492 nM and the TGI [27] was 2.76 µM. For the same compound, the GI50 [28] was 3.27 µM, the TGI [28] was greater than 100 µM and the GI50 [29] was 2580 nM. It also gave a TGI [29] of 9.16 µM, a GI50 [30] of 6.11 µM and a TGI [30] of 82.2 µM. It also gave a GI50 [31] of 2160 nM, a TGI [31] of 4.66 µM and a GI50 [32] of 2620 nM. For the same compound, the TGI [32] was 16 µM, the GI50 [33] was 3.38 µM and the TGI [33] was 19 µM. It also gave a GI50 [34] of 2190 nM, a TGI [34] of 4.64 µM and a GI50 [35] of 2010 nM. For the same compound, the TGI [35] was 6.57 µM, the GI50 [36] was 3.58 µM and the TGI [36] was 31.9 µM. It also gave a GI50 [37] of 3.15 µM, a TGI [37] of 12.9 µM and a GI50 [38] of 3.2 µM. The TGI [38] was 25 µM, the GI50 [39] was 2320 nM and the TGI [39] was 19.7 µM. For the same compound, the GI50 [40] was 2510 nM, the TGI [40] was 9.19 µM and the GI50 [41] was 3.74 µM. The TGI [41] was 18.5 µM, the GI50 [42] was 2550 nM and the TGI [42] was 8.81 µM. For the same compound, the GI50 [43] was 2080 nM, the TGI [43] was 4.98 µM and the GI50 [44] was 7.69 µM. For the same compound, the TGI [44] was 47.1 µM, the GI50 [45] was 5.16 µM and the TGI [45] was greater than 100 µM. It also gave a GI50 [46] of 3.16 µM, a TGI [46] of 11.4 µM and a GI50 [47] of 3.04 µM. It also gave a TGI [47] of 12.9 µM, a GI50 [48] of 3.66 µM and a TGI [48] of 17.3 µM. For the same compound, the GI50 [49] was 3.7 µM, the TGI [49] was 60.3 µM and the GI50 [50] was 2180 nM. The TGI [50] was 6.22 µM, the GI50 [51] was 594 nM and the TGI [51] was greater than 100 µM. It also gave a GI50 [52] of 3.37 µM, a TGI [52] of 25.9 µM and a GI50 [53] of 3.14 µM. It also gave a TGI [53] of 39.7 µM, a GI50 [54] of 8.18 µM and a TGI [54] of 34.3 µM. For the same compound, the GI50 [55] was 2500 nM, the TGI [55] was 11.2 µM and the GI50 [56] was 3.51 µM. The TGI [56] was 34.6 µM, the GI50 [57] was 2490 nM and the TGI [57] was 29.1 µM. It also gave a GI50 [58] of 4.22 µM and a TGI [58] of 21.3 µM.

With COCn1cnc2c(=O)n(-c3ccc(C)cc3)c(=S)n(-c3ccc(C)cc3)c21 the TGI [1] was greater than 100 µM, the TGI [2] was greater than 100 µM and the TGI [3] was greater than 100 µM. The TGI [4] was greater than 100 µM, the TGI [5] was greater than 100 µM and the TGI [6] was greater than 100 µM. It also gave a TGI [7] greater than 100 µM, a TGI [8] greater than 100 µM and a TGI [9] greater than 100 µM. The TGI [10] was greater than 100 µM, the TGI [11] was greater than 100 µM and the TGI [12] was greater than 100 µM. The TGI [13] was greater than 100 µM, the TGI [14] was greater than 100 µM and the TGI [15] was greater than 100 µM. The TGI [16] was greater than 100 µM, the TGI [17] was greater than 100 µM and the TGI [18] was greater than 100 µM. It also gave a TGI [19] greater than 100 µM, a TGI [20] greater than 100 µM and a TGI [21] greater than 100 µM. For the same compound, the TGI [22] was greater than 100 µM, the TGI [23] was greater than 100 µM and the TGI [24] was greater than 100 µM. For the same compound, the TGI [25] was greater than 100 µM, the TGI [26] was greater than 100 µM and the TGI [27] was greater than 100 µM. For the same compound, the TGI [28] was greater than 100 µM, the TGI [29] was greater than 100 µM and the TGI [30] was greater than 100 µM. It also gave a TGI [31] greater than 100 µM, a TGI [32] greater than 100 µM and a TGI [33] greater than 100 µM. The TGI [34] was greater than 100 µM, the TGI [35] was greater than 100 µM and the TGI [36] was greater than 100 µM. It also gave a TGI [37] greater than 100 µM, a TGI [38] greater than 100 µM and a TGI [39] greater than 100 µM. It also gave a TGI [40] greater than 100 µM, a TGI [41] greater than 100 µM and a TGI [42] greater than 100 µM. For the same compound, the TGI [43] was greater than 100 µM, the TGI [44] was greater than 100 µM and the TGI [45] was greater than 100 µM. It also gave a TGI [46] greater than 100 µM, a TGI [47] greater than 100 µM and a TGI [48] greater than 100 µM. For the same compound, the TGI [49] was greater than 100 µM, the TGI [50] was greater than 100 µM and the TGI [51] was greater than 100 µM. For the same compound, the TGI [52] was greater than 100 µM, the TGI [53] was greater than 100 µM and the TGI [54] was greater than 100 µM. It also gave a TGI [55] greater than 100 µM, a TGI [56] greater than 100 µM and a TGI [57] greater than 100 µM. For the same compound, the TGI [58] was greater than 100 µM.
